Measured values published in PMC9687798, “Atypical Substrates of the Organic Cation Transporter 1” (Biomolecules, 2022).
Values joined by “and” are separate entries in the source; they are usually repeats but may differ in a detail not shown here. Identical values can stand only once.

How the values were obtained:
[1] = target: T1, variant human OCT1*2 (M420del) (Homo sapiens, UniProt O15245, DEL420-420); experiment: Cellular uptake by HEK293 cells overexpressing OCT1*2; format: cell-based; conditions: for uptake by OCT1*2 in comparison to OCT1*1: 1 µM substance; for uptake of prostaglandins by OCT1*2 in comparison to wild-type: 1, 10 and 100 µM, 120 s
T1 construct: expressed in transfected cells
T1 sequence (O15245 with tags, fused parts or gaps DEL420-420): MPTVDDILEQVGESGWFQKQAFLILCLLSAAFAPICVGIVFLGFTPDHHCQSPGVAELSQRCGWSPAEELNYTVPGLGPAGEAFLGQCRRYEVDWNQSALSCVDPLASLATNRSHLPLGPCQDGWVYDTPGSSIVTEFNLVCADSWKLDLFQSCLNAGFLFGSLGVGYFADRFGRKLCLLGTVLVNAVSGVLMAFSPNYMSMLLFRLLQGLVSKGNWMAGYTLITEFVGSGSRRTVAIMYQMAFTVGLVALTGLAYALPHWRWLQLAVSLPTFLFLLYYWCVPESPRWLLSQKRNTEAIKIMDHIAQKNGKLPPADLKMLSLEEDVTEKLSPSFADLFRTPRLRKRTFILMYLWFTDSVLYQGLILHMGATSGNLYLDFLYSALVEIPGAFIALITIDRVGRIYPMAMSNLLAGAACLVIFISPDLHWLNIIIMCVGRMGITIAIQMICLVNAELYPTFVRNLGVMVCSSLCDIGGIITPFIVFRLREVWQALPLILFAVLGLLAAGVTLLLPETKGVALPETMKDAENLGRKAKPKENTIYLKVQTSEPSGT
Method: The wild-type cell lines of OCT1 and OCT2, as well as the variant cell lines OCT1*2 and *3, were generated using the Flp-In system (Thermo Fisher Scientific, Darmstadt, Germany) as described in previous publications. The cell line overexpressing OCT3 was a kind gift from Dr. Koepsell and Dr. Gorbulev (University of Würzburg, Germany). Cells transfected with the empty pcDNA5/FRT vector were used for the transport experiments as a control cell line. All cells were cultured approximately up to passage 30.
Forty-eight hours before the transport experiments, 600,000 cells were plated on 12-well plates pre-coated with poly-D-lysine and incubated at 37 °C with 5% CO2. The prepared 12-well plate with cells was positioned on a heating plate pre-warmed to 37 °C. After removing the medium, the cells were washed with 37 °C HBSS+ (10 mM HEPES in Hank’s balanced salt solution, pH 7.4). Then, one pre-defined concentration of a substrate was added to each well. The incubation period was stopped by adding 2 mL of 4 °C HBSS+ and removing the cells from the heating plate. The cells were washed twice with 4 °C HBSS+. For cell lysis, the cells were incubated for 15 min with 500 µL of 80% acetonitrile (LGC Standards, Wesel, Germany), which contained a respective internal standard (Table 1).
For concentration-dependent transport, the cells were incubated with defined substrate concentrations (0.1, 1, 10, 30, 100, 300, 600, 1000 µM) for the respective pre-defined incubation times. […] The uptake by a transporter was normalised to the uptake by empty vector-transfected cells. […] The results of transport experiments were normalized to the total protein concentration per well. Total protein quantification was performed using a bicinchoninic acid assay with bovine serum albumin as standard.
The ratios of cellular uptake were calculated by dividing the total uptake of transporter-overexpressing cells by the total uptake into empty vector transfected cells. The concentration-dependent cellular net uptake was used for analysis of transport kinetics by subtracting for each substrate concentration the uptake of empty vector-transfected cells from the uptake of transporter-overexpressing cells. […] The intrinsic clearance Clint was expressed with the ratio of Vmax and KM.

human OCT1*1 (wild-type) [2] = target: T2, human OCT1*1 (wild-type) (Homo sapiens, UniProt O15245); experiment: Cellular uptake ratio, OCT1-overexpressing HEK293 cells vs empty vector; format: cell-based
T2 sequence (O15245 1-554): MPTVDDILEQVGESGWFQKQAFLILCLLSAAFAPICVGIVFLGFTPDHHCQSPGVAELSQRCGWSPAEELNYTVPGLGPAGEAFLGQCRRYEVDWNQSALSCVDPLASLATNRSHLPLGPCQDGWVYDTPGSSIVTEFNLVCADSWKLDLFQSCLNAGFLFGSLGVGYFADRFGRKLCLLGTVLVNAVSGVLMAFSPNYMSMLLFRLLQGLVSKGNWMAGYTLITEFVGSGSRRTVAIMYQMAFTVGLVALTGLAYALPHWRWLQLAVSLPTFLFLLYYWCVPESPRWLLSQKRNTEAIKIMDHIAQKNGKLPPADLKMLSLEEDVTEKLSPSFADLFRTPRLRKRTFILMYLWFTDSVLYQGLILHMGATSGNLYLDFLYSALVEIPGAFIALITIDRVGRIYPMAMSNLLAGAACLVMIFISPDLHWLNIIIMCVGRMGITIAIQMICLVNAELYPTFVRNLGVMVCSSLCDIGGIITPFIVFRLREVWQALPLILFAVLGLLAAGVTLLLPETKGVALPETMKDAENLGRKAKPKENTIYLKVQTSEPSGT
Summary of the method: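 Flp-In HEK293 cells stably expressing transporter, or empty pcDNA5/FRT vector as control, incubated at 37 °C in HBSS with 10 mM HEPES, pH 7.4, with substrate. Uptake quantified by LC-MS with internal standard and normalised to total protein. Ratio = total uptake in transporter cells divided by that in empty-vector cells.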

human OCT1*1 (wild-type) [3] = target: T2, human OCT1*1 (wild-type); experiment: Concentration-dependent uptake (transport kinetics) in HEK293 cells overexpressing OCT1 wild-type; conditions: for Clint (±SEM): intrinsic clearance = ratio of Vmax and KM, OCT1 wild-type; for Vmax (±SEM): net uptake (OCT1 minus empty vector), HEK293, 0.1-1000 µM substrate, Michaelis–Menten; for OCT1 substrate classification from concentration-dependent uptake: good >5, poor 1–5, non-substrate <1 µL/mg protein/min or uptake not above empty vector
[4] = based on ratio uptake data at 1 µM
[5] = based on ratio uptake data at 100 µM (footnote *)

| SMILES | uptake by OCT1*2 in comparison to OCT1*1 [1] | uptake ratio by OCT1 (normalised to empty vector) (human OCT1*1 (wild-type) [2]; 1 µM and 100 µM substance) | Clint (±SEM) (human OCT1*1 (wild-type) [3]) | Clint (±SEM) (human OCT1*1 (wild-type) [3]; listed as emtricitabine) | OCT1 transport category (human OCT1*1 (wild-type) [2]; [4]) | Clint (±SEM) (human OCT1*1 (wild-type) [3]; listed as levodopa) | Vmax (±SEM) (human OCT1*1 (wild-type) [3]) | OCT1 substrate classification from concentration-dependent uptake (human OCT1*1 (wild-type) [3]) | uptake of prostaglandins by OCT1*2 in comparison to wild-type [1] | uptake ratio of prostaglandins by OCT1 wild-type (human OCT1*1 (wild-type) [2]; 1, 10 and 100 µM, 120 s) | OCT1 transport category (human OCT1*1 (wild-type) [2]; [5]) | Clint (±SEM) (human OCT1*1 (wild-type) [3]; listed as prostaglandin E2) | Clint (±SEM) (human OCT1*1 (wild-type) [3]; listed as prostaglandin F2α) |
| --- | --- | --- | --- | --- | --- | --- | --- | --- | --- | --- | --- | --- | --- |
| Nc1nc(=O)n([C@@H]2CS[C@H](CO)O2)cc1F [Emtricitabine, emtricitabine] | reduction in uptake | around 4 | 6.15 ± 2.82 µL/mg Protein/min | 6.15 µL/mg Protein/min | – | – | – | – | – | – | – | – | – |
| N[C@@H](Cc1ccc(O)c(O)c1)C(=O)O [Levodopa, levodopa] | – | – | 13.8 ± 8.6 µL/mg Protein/min | – | 0 (no transport by OCT1, OCT2, and OCT3 occurred (i.e., no kinetic parameters or uptake ratio <2 without significance)) | 13.8 µL/mg Protein/min | 4993 ± 884 pmol/mg Protein/min | – | – | – | – | – | – |
| N=C(N)c1ccc(OCCCCCOc2ccc(C(=N)N)cc2)cc1 [Pentamidine, pentamidine] | to a small extent | – | 1.15 µL/mg Protein/min and 1.15 ± 1.75 µL/mg Protein/min | – | +/− (poor transport with a Clint < 5 or ratio between 1–2 with statistical significance (p < 0.05)) | – | 143 ± 63.1 pmol/mg Protein/min | poor substrate of OCT1 | – | – | – | – | – |
| CCCCC[C@H](O)/C=C/[C@H]1[C@H](O)CC(=O)[C@@H]1C/C=C\CCCC(=O)O [Prostaglandin E2, prostaglandin E2] | – | – | 3.50 ± 3.42 µL/mg Protein/min | – | – | – | 4119 pmol/mg Protein/min | (poor) substrates of OCT1 | reduced to the level of the control cell line | strongly increased uptake by OCT1 at higher concentrations | + (good substrates of OCTs when the intrinsic clearance is between 5–15 or the ratio is 2–10) | 3.5 µL/mg Protein/min | – |
| CCCCC[C@H](O)/C=C/[C@@H]1[C@@H](C/C=C\CCCC(=O)O)[C@@H](O)C[C@H]1O [Prostaglandin F2α, prostaglandin F2α] | – | – | 1.40 ± 1.09 µL/mg Protein/min | – | – | – | 1007 pmol/mg Protein/min | (poor) substrates of OCT1 | reduced to the level of the control cell line | – | + (good substrates of OCTs when the intrinsic clearance is between 5–15 or the ratio is 2–10) | – | 1.4 µL/mg Protein/min |
| COc1cc(Cc2cnc(N)nc2N)cc(OC)c1OC [Trimethoprim, trimethoprim] | reduction in uptake | – | – | – | + (good substrates of OCTs when the intrinsic clearance is between 5–15 or the ratio is 2–10) | – | 300 ± 16.9 pmol/mg Protein/min | – | – | – | – | – | – |
| Nc1ccn([C@H]2CC[C@@H](CO)O2)c(=O)n1 [Zalcitabine, zalcitabine] | reduction in uptake | – | 2.57 ± 0.65 µL/mg Protein/min | – | + (good substrates of OCTs when the intrinsic clearance is between 5–15 or the ratio is 2–10) | – | – | poor transport efficiency | – | – | – | – | – |
